The source of these data is ChEMBL document CHEMBL1135268, “Design, synthesis and in vitro evaluation of potent, novel, small molecule inhibitors of plasminogen activator inhibitor-1” (Bioorg Med Chem Lett, 2002).

The target of test [1] is T1, Plasminogen activator inhibitor 1 (Homo sapiens, UniProt P05121). In words: Inhibitory activity against human plasminogen activator inhibitor-1 (PAI-1) evaluated by chromogenic assay.
The target of test [2] is T1, Plasminogen activator inhibitor 1. In words: Inhibitory activity against human plasminogen activator inhibitor-1 (PAI-1) evaluated by complex assay.

Bounds are passed on as bounds.

T1 sequence (P05121 whole entry): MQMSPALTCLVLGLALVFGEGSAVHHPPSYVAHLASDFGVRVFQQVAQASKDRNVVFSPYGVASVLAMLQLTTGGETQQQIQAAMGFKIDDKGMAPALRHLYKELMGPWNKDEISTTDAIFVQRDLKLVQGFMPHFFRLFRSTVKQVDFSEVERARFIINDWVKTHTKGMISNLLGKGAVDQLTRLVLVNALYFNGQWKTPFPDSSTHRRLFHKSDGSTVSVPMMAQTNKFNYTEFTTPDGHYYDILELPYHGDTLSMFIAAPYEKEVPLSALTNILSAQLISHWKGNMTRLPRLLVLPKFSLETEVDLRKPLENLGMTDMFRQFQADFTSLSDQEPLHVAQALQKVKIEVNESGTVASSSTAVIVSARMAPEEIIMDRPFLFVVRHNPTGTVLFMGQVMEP

As a reminder, the IC50 is the concentration needed to halve the response being measured. A low value points to higher potency. For the compound `O=C(O)CCCCCCCOc1ccc(NC(=O)C2=C(O)CN(c3ccc([N+](=O)[O-])cc3)C2=O)cc1`, inhibition in test [1] was half-maximal at 4250 nM (IC50).

In test [1], `O=C(O)CCCCCCCOc1ccc(NC(=O)c2c(O)c3ccccc3[nH]c2=O)cc1` registered an IC50 of 1850 nM.

`CC(=O)Nc1ccc(N2CC(O)=C(C(=O)Nc3ccc(OCCCCCCCC(=O)O)cc3)C2=O)cc1` returned a 50% inhibitory concentration (IC50) in test [1] of over 50000 nM.

`O=C(O)CCCCCCCOc1ccc(NC(=O)c2c(O)nc3ccc([N+](=O)[O-])cc3c2O)cc1` had an IC50 in test [1] of 3600 nM.

For `O=C(O)CCCCCCCOc1ccc(NC(=O)c2c(O)nc3cc(F)c(F)cc3c2O)cc1`, in test [1], the IC50 turned out to be 2350 nM.

Turning to `O=C(O)CCCCCCCOc1ccc(NC(=O)c2c(O)nc3ccc(I)cc3c2O)cc1`, the midpoint of inhibition in test [1], the IC50, lay at 2200 nM.

As to `O=C(Nc1ccc(OCCCCCCCn2cnnn2)cc1)c1c(O)c2cc(-c3cc4ccccc4s3)ccc2[nH]c1=O`, the IC50 in test [1] was 1010 nM; in test [2], 290 nM.

`COc1cc2[nH]c(=O)c(C(=O)Nc3ccc(OCCCCCCCC(=O)O)cc3)c(O)c2cc1OC`: half-maximal inhibition in test [1] (IC50) required 1650 nM.

`O=C(O)CCCCCCCOc1ccc(NC(=O)C2=C(O)CN(c3ccc(N4CCOCC4)cc3)C2=O)cc1`: the 50% inhibitory concentration (IC50) in test [1] is over 50000 nM.

On to `O=C(O)CCCCCCCOc1ccc(NC(=O)C2=C(O)CN(c3ccc4ccccc4c3)C2=O)cc1`, for which, in test [1], the IC50 is 4000 nM.

On to `O=C(O)CCCCCCCOc1ccc(NC(=O)c2c(O)nc3ccc(Cl)cc3c2O)cc1`, for which half-maximal inhibition in test [1] (IC50) was put at 1950 nM.

In turn, `O=C(O)CCCCCCCOc1ccc(NC(=O)c2c(O)c3c([N+](=O)[O-])cccc3[nH]c2=O)cc1` showed an IC50 in test [1] of 7900 nM.

In turn, `COC(=O)CCCCCCCOc1ccc(NC(=O)C2=C(O)CN(c3ccc(Cl)cc3)C2=O)cc1` returned an IC50 in test [1] of over 50000 nM.

In test [1], `O=C(O)CCCCCCCOc1ccc(NC(=O)C2=C(O)CN(c3ccccc3Cl)C2=O)cc1` came in with an IC50 of over 50000 nM.

In test [1], `O=C(O)CCCCCCCOc1ccc(NC(=O)c2c(O)c3cc(F)ccc3[nH]c2=O)cc1` displayed an IC50 of 4900 nM.

In the case of `O=C(O)CCCCCCCOc1ccc(NC(=O)c2c(O)c3ccc(C(F)(F)F)cc3[nH]c2=O)cc1`, the half-maximal inhibitory concentration (IC50) in test [1] was found to be 1030 nM.

`O=C(O)CCCCCCCOc1ccc(NC(=O)c2c(O)c3ccc(-c4ccc5ccccc5c4)cc3[nH]c2=O)cc1` returned a concentration for half-maximal inhibition (IC50) in test [1] of 600 nM.

Turning to `O=C(O)CCCCCCCOc1ccc(NC(=O)c2c(O)c3cc(-c4ccc(Cl)cc4)ccc3[nH]c2=O)cc1`, the IC50 in test [1] amounted to 2000 nM.

Regarding `Cc1ccc(N2CC(O)=C(C(=O)Nc3ccc(OCCCCCCCn4cnnn4)cc3)C2=O)cc1`, the IC50 was 890 nM in test [1] and 830 nM in test [2].

Consider `N#Cc1ccc2c(O)c(C(=O)Nc3ccc(OCCCCCCCC(=O)O)cc3)c(=O)[nH]c2c1`, for which, in test [1], the IC50 was determined as 900 nM.

In test [1], `O=C(O)CCCCCCCOc1ccc(NC(=O)C2=C(O)CN(c3ccc(Cl)cc3)C2=O)cc1` yielded a 50% inhibitory concentration (IC50) of 5000 nM.

In test [1], `Nc1ccc2c(O)c(C(=O)Nc3ccc(OCCCCCCCC(=O)O)cc3)c(O)nc2c1` came in with an IC50 of over 30000 nM.

Compound `Nc1cccc2nc(O)c(C(=O)Nc3ccc(OCCCCCCCC(=O)O)cc3)c(O)c12` gave a half-maximal inhibitory concentration (IC50) in test [1] of 4250 nM.

On to `O=C(O)CCCCCCCOc1ccc(NC(=O)c2c(O)nc3ccc(-c4csc5ccccc45)cc3c2O)cc1`, for which the IC50 in test [1] was determined as 510 nM; in test [2] it was 940 nM.

In turn, `Nc1ccc2nc(O)c(C(=O)Nc3ccc(OCCCCCCCC(=O)O)cc3)c(O)c2c1` had a concentration for half-maximal inhibition (IC50) in test [1] of over 20000 nM.

In the case of `O=C(O)CCCCCCCOc1ccc(NC(=O)c2c(O)c3cc(-c4cc5ccccc5s4)ccc3[nH]c2=O)cc1`, the 50% inhibitory concentration (IC50) in test [1] came out at 500 nM.

Compound `O=C(O)CCCCCCCOc1ccc(NC(=O)c2c(O)c3c(Cl)cccc3[nH]c2=O)cc1` returned a 50% inhibitory concentration (IC50) in test [1] of 3000 nM.

As for `O=C(O)CCCCCCCOc1ccc(NC(=O)C2=C(O)C(c3ccccc3)NC2=O)cc1` (stereo not drawn), it took 49000 nM to reach half-maximal inhibition in test [1] (IC50).

As for `CCCCCc1ccc2[nH]c(=O)c(C(=O)Nc3ccc(OCCCCCCCC(=O)O)cc3)c(O)c2c1`, it took 1800 nM to reach half-maximal inhibition in test [1] (IC50).

In the case of `O=C(O)CCCCCCCOc1ccc(NC(=O)C2=C(O)CN(c3cccc4ccccc34)C2=O)cc1`, the concentration for half-maximal inhibition (IC50) in test [1] was over 50000 nM.

In test [1], `O=C(O)CCCCCCCOc1ccc(NC(=O)c2c(O)c3cccc(-c4cccc5ccccc45)c3[nH]c2=O)cc1` had an IC50 of over 50000 nM.

Regarding `COC(=O)c1cccc(N2CC(O)=C(C(=O)Nc3ccc(OCCCCCCCC(=O)O)cc3)C2=O)c1`, the half-maximal inhibitory concentration (IC50) in test [1] came to 17900 nM.

Compound `O=C(O)CCCCCCCOc1ccc(NC(=O)C2=C(O)CN(c3ccc(Cl)c(Cl)c3)C2=O)cc1` showed an IC50 in test [1] of 13000 nM.

`Cc1ccc(N2CC(O)=C(C(=O)Nc3ccc(OCCCCCCCC(=O)O)cc3)C2=O)cc1`: the IC50 in test [1] came to 1950 nM.

In the case of `COc1ccc(N2CC(O)=C(C(=O)Nc3ccc(OCCCCCCCC(=O)O)cc3)C2=O)cc1`, it took 3660 nM to reach half-maximal inhibition in test [1] (IC50).

The compound `COc1ccc(-c2cccc3c(O)c(C(=O)Nc4ccc(OCCCCCCCC(=O)O)cc4)c(=O)[nH]c23)cc1` had a half-maximal inhibitory concentration (IC50) in test [1] of 30000 nM.

The compound `O=C(O)CCCCCCCOc1ccc(NC(=O)C2=C(O)CN(c3ccccc3)C2=O)cc1` gave an IC50 in test [1] of 21000 nM.

As for `COc1ccccc1N1CC(O)=C(C(=O)Nc2ccc(OCCCCCCCC(=O)O)cc2)C1=O`, the IC50 in test [1] was over 50000 nM.

Take `O=C(O)CCCCCCCOc1ccc(/C=c2/[nH]c(=O)/c(=C/c3ccc(NC(=O)c4cccs4)cc3)[nH]c2=O)cc1`: the IC50 in test [1] was 200 nM; in test [2], 510 nM.

On to `O=C(O)CCCCCCCOc1ccc(NC(=O)C2=C(O)CN(Cc3ccccc3)C2=O)cc1`, for which the IC50 in test [1] is over 50000 nM.

For the compound `O=C(O)CCCCCCCOc1ccc(NC(=O)c2c(O)c3c(I)cccc3[nH]c2=O)cc1`, in test [1], the IC50 was determined as 7000 nM.

Turning to `O=C(O)CCCCCCCOc1ccc(NC(=O)C2=C(O)C(Cc3ccc(O)cc3)NC2=O)cc1` (stereo not drawn), the concentration for half-maximal inhibition (IC50) in test [1] was over 50000 nM.

Compound `CC1C(O)=C(C(=O)Nc2ccc(OCCCCCCCC(=O)O)cc2)C(=O)N1c1ccccc1` (stereo not drawn) returned a half-maximal inhibitory concentration (IC50) in test [1] of over 50000 nM.

In turn, `CC(C)c1ccc(N2CC(O)=C(C(=O)Nc3ccc(OCCCCCCCC(=O)O)cc3)C2=O)cc1` displayed a concentration for half-maximal inhibition (IC50) in test [1] of 2350 nM.

In the case of `O=C(O)CCCCCCCOc1ccc(NC(=O)c2c(O)c3cc(-c4ccc5ccccc5c4)ccc3[nH]c2=O)cc1`, the half-inhibitory concentration (IC50) in test [1] was 670 nM.

Consider `O=C(O)CCCCCCCOc1ccc(NC(=O)c2c(O)c3ccc(-c4cc5ccccc5s4)cc3[nH]c2=O)cc1`, for which inhibition in test [1] was half-maximal at 300 nM (IC50).

As to `O=C(O)CCCCCCCOc1ccc(NC(=O)C2=C(O)CN(c3ccc(Br)cc3)C2=O)cc1`, in test [1], half-maximal inhibition (IC50) was put at 1990 nM.

`O=C(Nc1ccc(OCCCCCCCn2cnnn2)cc1)C1=C(O)CN(c2ccc(Cl)cc2)C1=O`: the values for the concentration for half-maximal inhibition (IC50) in test [1] and in test [2] were 690 nM and 300 nM, respectively.
